In experiment [1] the target is T1, α2 subtype containing GABA-A receptors (Homo sapiens, UniProt P18507+P47869).
T1 construct: expressed in transfected cells; host or cells: Xenopus laevis oocytes, cRNA injected
Nature of the experiment: Two-electrode voltage clamp electrophysiology in Xenopus oocytes, potentiation of GABA EC20 response, α2. Type of experiment: cell-based. The note with it: 100 nM compound; for activation at 0.1 µM: read-out: Percentage of potentiation alpha2. The procedure, abridged: (§1)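 Compounds are tested at 100 nM, one per oocyte, against an EC20 GABA (60 μM) response in human α1-, α2-, α3- or α5-β3-γ2L receptors clamped at −80 mV. Oocytes showing rapid desensitization or weak chlordiazepoxide (1 μM) potentiation are excluded.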
(Two-electrode voltage clamp is typically applied to oocytes expressing channels or transporters.)

Experiment [2] relates to central benzodiazepine receptors. Briefly: Central benzodiazepine receptor binding (test of Speth et al.). Particulars: 1000 nM of the compound. The procedure, abridged:
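Radioligand binding by the Speth et al. method. Specific binding is total minus nonspecific binding, the latter measured with excess unlabelled ligand. Compounds screened at 1.0E-09, 1.0E-07 and 1.0E-05 M in single determination; values given as percent inhibition at 1000 nM compound.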

Experiment [3] has as its target T2, α5 subtype containing GABA-A receptors (Homo sapiens, UniProt P18507+P31644).
T2 construct: expressed in transfected cells; host or cells: Xenopus laevis oocytes, cRNA injected
Nature of the experiment: Two-electrode voltage clamp electrophysiology in Xenopus oocytes, potentiation of GABA EC20 response, α5. Type of experiment: cell-based. Particulars: 100 nM compound; for activation at 0.1 µM: read-out: Percentage of potentiation alpha5. The protocol: (§2) Electrophysiology protocol: Oocytes were prepared from adult female Xenopus laevis frogs. cRNA encoding human α1, α2, α3, α5, β3 and γ2L GABAA receptor subunits was injected into the cytoplasm of stage 5 or 6 oocytes using the Robocyte Robot (Multi Channel Systems, Reutlingen, Germany). Two-electrode voltage clamp recordings were made in 96-well plates using the Robocyte Robot. Oocytes were impaled using recording heads with two glass electrodes containing 1.5 M potassium acetate and 0.5 M KCl and held at a membrane potential of −80 mV. Oocytes were continually perfused with a ND96 solution (96 mM NaCl, 2 mM KCl, 0.1 mM CaCl2, and 5 mM HEPES, pH 7.5) using a Gilson 222 XL Liquid Handler and Gilson Minipuls 3 Peristaltic Pump (Gilson Medical Electronics, Middleton, Wis., USA). The protocol consisted of three 20-s applications of GABA that gave a 20% of the maximum response (EC20: 60 μM) to allow for headroom to determine a baseline GABA response. To assess the potentiation, oocytes were first exposed to a single 1 μM chlordiazepoxide (CDP) as a potentiation standard. Oocytes with insufficient expression levels (currents below threshold) or insufficient γ2L subunit incorporation (judged by rapid desensitization upon GABA application, or by insufficient potentiation by CDP) were not included in analysis. Following this control application, a given oocyte was exposed to test compounds at 100 nM concentrations. Only one concentration of one compound was tested per oocyte. […] One skilled in the art will recognize that subtypes contribute to the effects of GABA-A modulators. Such that compounds favoring different subtypes can have different therapeutic effects. The magnitude of modulation, for example, partial modulators can influence the effects in vivo. “++” indicates a greater modulation that “+” so that at any given subtype “++” inducates a greater amount of modulation for that subtype. In some embodiments, modulation favoring alpha 1 relative to alpha2 and/or alpha 3 can have sedative hypnotic effects. In other embodiments, compounds with reduced selectivity of alpha 1 can express anxiolytic effects with less sedation. Compounds with selectivity for alpha 5 can have memory/cognition enhancing effects.

The target of experiment [4] is T3, α1 subtype containing GABA-A receptors (Homo sapiens, UniProt P14867+P18507).
T3 construct: expressed in transfected cells; host or cells: Xenopus laevis oocytes, cRNA injected
T3 sequence (P14867 28-456): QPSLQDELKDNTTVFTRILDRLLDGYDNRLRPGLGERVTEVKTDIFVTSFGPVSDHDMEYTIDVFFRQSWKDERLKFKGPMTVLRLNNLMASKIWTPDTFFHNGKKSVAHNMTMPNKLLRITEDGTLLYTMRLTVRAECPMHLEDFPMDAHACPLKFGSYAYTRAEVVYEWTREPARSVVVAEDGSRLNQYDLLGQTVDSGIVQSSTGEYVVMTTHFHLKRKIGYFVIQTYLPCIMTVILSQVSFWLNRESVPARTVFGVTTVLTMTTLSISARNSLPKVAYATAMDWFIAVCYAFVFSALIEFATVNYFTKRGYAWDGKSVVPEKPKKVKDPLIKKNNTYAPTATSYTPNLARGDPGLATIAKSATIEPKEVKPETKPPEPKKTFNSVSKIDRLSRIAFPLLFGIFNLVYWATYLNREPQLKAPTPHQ
T3 sequence (P28472 26-473 partner): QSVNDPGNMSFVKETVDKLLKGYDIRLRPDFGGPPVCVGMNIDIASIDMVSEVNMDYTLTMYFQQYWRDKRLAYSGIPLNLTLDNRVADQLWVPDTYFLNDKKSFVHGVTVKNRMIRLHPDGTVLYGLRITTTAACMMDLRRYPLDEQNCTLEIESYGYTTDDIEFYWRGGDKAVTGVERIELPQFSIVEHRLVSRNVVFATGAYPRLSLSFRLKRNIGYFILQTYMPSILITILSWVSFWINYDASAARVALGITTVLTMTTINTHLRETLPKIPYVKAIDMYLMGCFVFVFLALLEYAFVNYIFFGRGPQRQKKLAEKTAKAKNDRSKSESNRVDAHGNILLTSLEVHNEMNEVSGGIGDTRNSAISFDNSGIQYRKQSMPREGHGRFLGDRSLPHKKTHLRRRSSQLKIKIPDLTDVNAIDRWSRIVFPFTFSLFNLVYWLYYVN
T3 sequence (P18507 40-475): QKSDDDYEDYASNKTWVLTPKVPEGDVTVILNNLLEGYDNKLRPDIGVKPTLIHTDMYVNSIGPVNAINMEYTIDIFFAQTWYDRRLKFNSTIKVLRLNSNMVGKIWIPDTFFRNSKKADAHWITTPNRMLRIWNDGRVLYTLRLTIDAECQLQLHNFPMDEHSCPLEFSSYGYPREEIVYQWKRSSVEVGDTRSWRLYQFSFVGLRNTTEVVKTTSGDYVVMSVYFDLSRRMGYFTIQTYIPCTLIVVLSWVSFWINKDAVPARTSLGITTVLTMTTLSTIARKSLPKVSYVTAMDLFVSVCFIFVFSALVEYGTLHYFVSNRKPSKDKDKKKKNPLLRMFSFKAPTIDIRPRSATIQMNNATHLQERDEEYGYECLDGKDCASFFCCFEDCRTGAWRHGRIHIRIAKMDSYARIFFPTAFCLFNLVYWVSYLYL
Nature of the experiment: Two-electrode voltage clamp electrophysiology in Xenopus oocytes, potentiation of GABA EC20 response, α1. Type of experiment: cell-based. Particulars: 100 nM compound; for activation at 0.1 µM: read-out: Percentage of potentiation alpha1. The procedure, abridged:
as §1

Experiment [5] concerns the target T4, α3 subtype containing GABA-A receptors (Homo sapiens, UniProt P18507+P34903).
T4 construct: expressed in transfected cells; host or cells: Xenopus laevis oocytes, cRNA injected
Briefly: Two-electrode voltage clamp electrophysiology in Xenopus oocytes, potentiation of GABA EC20 response, α3. The class given is cell-based. Particulars: 100 nM compound; for activation at 0.1 µM: read-out: Percentage of potentiation alpha3. The procedure: as §2

T2 sequence (P31644 32-462): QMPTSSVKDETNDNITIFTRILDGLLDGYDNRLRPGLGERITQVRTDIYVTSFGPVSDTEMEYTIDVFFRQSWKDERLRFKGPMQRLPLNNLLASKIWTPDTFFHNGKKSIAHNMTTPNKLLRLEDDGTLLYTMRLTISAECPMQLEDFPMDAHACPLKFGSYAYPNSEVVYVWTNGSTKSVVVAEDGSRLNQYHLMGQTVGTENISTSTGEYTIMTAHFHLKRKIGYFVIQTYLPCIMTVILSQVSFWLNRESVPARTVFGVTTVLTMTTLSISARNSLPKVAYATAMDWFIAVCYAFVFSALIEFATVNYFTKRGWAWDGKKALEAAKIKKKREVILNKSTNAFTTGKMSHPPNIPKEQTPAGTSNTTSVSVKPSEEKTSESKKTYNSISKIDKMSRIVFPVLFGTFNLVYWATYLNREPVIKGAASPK
T2 sequence (P28472 26-473 partner): as the sequence (P28472 26-473 partner) above
T2 sequence (P18507 40-475): as the sequence (P18507 40-475) above
T1 sequence (P47869 29-451): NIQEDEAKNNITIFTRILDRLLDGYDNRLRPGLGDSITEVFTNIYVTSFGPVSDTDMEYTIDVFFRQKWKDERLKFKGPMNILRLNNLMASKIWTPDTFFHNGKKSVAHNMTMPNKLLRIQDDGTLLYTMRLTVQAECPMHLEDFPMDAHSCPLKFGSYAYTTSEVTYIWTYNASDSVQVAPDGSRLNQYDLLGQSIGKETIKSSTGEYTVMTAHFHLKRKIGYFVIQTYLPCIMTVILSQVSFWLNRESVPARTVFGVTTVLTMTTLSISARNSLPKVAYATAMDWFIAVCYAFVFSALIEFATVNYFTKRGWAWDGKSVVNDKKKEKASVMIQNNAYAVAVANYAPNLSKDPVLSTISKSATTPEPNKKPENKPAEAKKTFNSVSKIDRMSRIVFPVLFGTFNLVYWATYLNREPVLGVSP
T1 sequence (P28472 26-473 partner): as the sequence (P28472 26-473 partner) above
T1 sequence (P18507 40-475): as the sequence (P18507 40-475) above
T4 sequence (P34903 29-492): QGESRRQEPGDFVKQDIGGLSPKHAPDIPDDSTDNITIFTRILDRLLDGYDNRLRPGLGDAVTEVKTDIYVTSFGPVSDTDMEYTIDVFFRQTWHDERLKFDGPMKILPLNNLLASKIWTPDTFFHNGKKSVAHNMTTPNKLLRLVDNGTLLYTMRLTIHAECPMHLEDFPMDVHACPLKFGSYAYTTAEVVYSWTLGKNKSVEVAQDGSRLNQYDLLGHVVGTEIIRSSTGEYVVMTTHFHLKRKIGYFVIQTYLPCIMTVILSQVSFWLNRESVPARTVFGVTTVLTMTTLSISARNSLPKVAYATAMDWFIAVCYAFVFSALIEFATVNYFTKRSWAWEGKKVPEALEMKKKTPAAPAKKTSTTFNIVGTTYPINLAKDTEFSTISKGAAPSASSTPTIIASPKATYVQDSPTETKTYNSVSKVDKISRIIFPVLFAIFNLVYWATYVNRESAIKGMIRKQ
T4 sequence (P28472 26-473 partner): as the sequence (P28472 26-473 partner) above
T4 sequence (P18507 40-475): as the sequence (P18507 40-475) above

Consider `Cc1ccc(-c2nc3ccc(C)cn3c2Cn2cnc3ncccc32)cc1` [Compound 15, 1-((6-Methyl-2-p-tolylH-imidazo[1,2-a]pyridin-3-yl)methyl)-1H-imidazo[4,5-b]pyridine], for which, in experiment [1], the “Percentage of potentiation alpha2” value is listed as “+ (percentage of potentiation is greater than or equal to 10% but less than 50% in the presence of 100 nM of the compound)”. Besides, the “% Inhibition at 1000 nM for CBZD” value in experiment [2] was “++ (percentage of inhibition of central BZD site binding is greater than 80% in the presence of 1000 nM of the compound)”. For the same compound, the “Percentage of potentiation alpha5” value in experiment [3] is listed as 0 (percentage of potentiation is between about 10% to about −10%). Moreover, the “Percentage of potentiation alpha1” value in experiment [4] was “+ (percentage of potentiation is greater than or equal to 10% but less than 50% in the presence of 100 nM of the compound)”. For the same compound, the “Percentage of potentiation alpha3” value in experiment [5] is listed as “+ (percentage of potentiation is greater than or equal to 10% but less than 50% in the presence of 100 nM of the compound)”.

On to `Cc1ccc(-c2nc3ccc(C)cn3c2Cn2cnc3c(N(C)C)ncnc32)cc1` [Compound 17, N,N-Dimethyl-9-((6-methyl-2-p-tolylH-imidazo[1,2-a]pyridin-3-yl)methyl)-9H-purin-6-amine], for which, in experiment [1], the “Percentage of potentiation alpha2” value is given as “+ (percentage of potentiation is greater than or equal to 10% but less than 50% in the presence of 100 nM of the compound)”. In experiment [2], the “% Inhibition at 1000 nM for CBZD” value was “++ (percentage of inhibition of central BZD site binding is greater than 80% in the presence of 1000 nM of the compound)”. For the same compound, the “Percentage of potentiation alpha5” value in experiment [3] was 0 (percentage of potentiation is between about 10% to about −10%). Also, the “Percentage of potentiation alpha1” value in experiment [4] was “+ (percentage of potentiation is greater than or equal to 10% but less than 50% in the presence of 100 nM of the compound)”. Moreover, the “Percentage of potentiation alpha3” value in experiment [5] is 0 (percentage of potentiation is between about 10% to about −10%).

For the compound `COC(=O)c1ncnn1Cc1c(-c2ccc(Cl)cc2)nc2ccc(Cl)cn12` [Compound 21, Methyl 2-((6-chloro-2-(4-chlorophenyl)H-imidazo[1,2-a]pyridin-3-yl)methyl)-2H-1,2,4-triazole-3-carboxylate], the “Percentage of potentiation alpha2” value in experiment [1] is recorded as “+ (percentage of potentiation is greater than or equal to 10% but less than 50% in the presence of 100 nM of the compound)”. Besides, the “% Inhibition at 1000 nM for CBZD” value in experiment [2] is “++ (percentage of inhibition of central BZD site binding is greater than 80% in the presence of 1000 nM of the compound)”. The “Percentage of potentiation alpha5” value in experiment [3] is listed as 0 (percentage of potentiation is between about 10% to about −10%). The “Percentage of potentiation alpha1” value in experiment [4] is “+ (percentage of potentiation is greater than or equal to 10% but less than 50% in the presence of 100 nM of the compound)”. For the same compound, the “Percentage of potentiation alpha3” value in experiment [5] is “+ (percentage of potentiation is greater than or equal to 10% but less than 50% in the presence of 100 nM of the compound)”.

Regarding `CC(C)OC(=O)c1ncnn1Cc1c(-c2ccc(Cl)cc2)nc2ccc(Cl)cn12` [Compound 23, 2-[6-Chloro-2-(4-chloro-phenyl)-imidazo[1,2-a]pyridin-3-ylmethyl]-2H-[1,2,4]triazole-3-carboxylic acid isopropyl ester], the activation at 0.1 µM is 10 to 50% in experiment [1], -10 to 10% in experiment [3], 10 to 50% in experiment [4] and 10 to 50% in experiment [5]. In addition, in experiment [2], the “% Inhibition at 1000 nM for CBZD” value is on record as “++ (percentage of inhibition of central BZD site binding is greater than 80% in the presence of 1000 nM of the compound)”.

As for `Clc1ccc(-c2nc3ccccn3c2Cn2nccn2)cc1` [Compound 39, 2-(4-Chloro-phenyl)-3-[1,2,3]triazol-2-ylmethyl-imidazo[1,2-a]pyridine], the activation at 0.1 µM in experiment [1] is 10 to 50%; in experiment [3], -10 to 10%; in experiment [4] it was 10 to 50%; in experiment [5], 10 to 50%. The “% Inhibition at 1000 nM for CBZD” value in experiment [2] is given as “++ (percentage of inhibition of central BZD site binding is greater than 80% in the presence of 1000 nM of the compound)”.

On to `Fc1ccc2nc(-c3ccc(Cl)cc3)c(Cn3nnc4ccccc43)n2c1` [Compound 58, 1-((2-(4-chlorophenyl)-6-fluoroH-imidazo[1,2-a]pyridin-3-yl)methyl)-1H-benzo[d][1,2,3]triazole], for which, in experiment [1], the “Percentage of potentiation alpha2” value is on record as “+ (percentage of potentiation is greater than or equal to 10% but less than 50% in the presence of 100 nM of the compound)”. The “% Inhibition at 1000 nM for CBZD” value in experiment [2] is on record as “++ (percentage of inhibition of central BZD site binding is greater than 80% in the presence of 1000 nM of the compound)”. The “Percentage of potentiation alpha5” value in experiment [3] was 0 (percentage of potentiation is between about 10% to about −10%). Also, in experiment [4], the “Percentage of potentiation alpha1” value is recorded as “+ (percentage of potentiation is greater than or equal to 10% but less than 50% in the presence of 100 nM of the compound)”. The “Percentage of potentiation alpha3” value in experiment [5] is on record as 0 (percentage of potentiation is between about 10% to about −10%).

For the compound `O=c1n(Cc2c(-c3ccc(Cl)cc3)nc3ccccn23)nc2ccccn12` [Compound 119, 2-((2-(4-chlorophenyl)imidazo[1,2-a]pyridin-3-yl)methyl)-[1,2,4]triazolo[4,3-a]pyridin-3(2H)-one], the activation at 0.1 µM was 10 to 50% in experiment [1], -10 to 10% in experiment [3], -10 to 10% in experiment [4] and -10 to 10% in experiment [5]. Besides, the “% Inhibition at 1000 nM for CBZD” value in experiment [2] is “++ (percentage of inhibition of central BZD site binding is greater than 80% in the presence of 1000 nM of the compound)”.

In the case of `O=c1cc(Cl)n(Cc2c(-c3ccc(Cl)cc3)nc3ccccn23)c(=O)[nH]1` [Compound 128, 6-chloro-1-((2-(4-chlorophenyl)imidazo[1,2-a]pyridin-3-yl)methyl)pyrimidine-2,4(1H,3H)-dione], the activation at 0.1 µM in experiment [1] was 10 to 50%; in experiment [3], 10 to 50%; in experiment [4], -10 to 10%; in experiment [5], -10 to 10%. Moreover, in experiment [2], the “% Inhibition at 1000 nM for CBZD” value is “++ (percentage of inhibition of central BZD site binding is greater than 80% in the presence of 1000 nM of the compound)”.

For `CNc1ccn(Cc2c(-c3ccc(Cl)cc3)nc3ccccn23)c(=O)n1` [Compound 133, 1-((2-(4-chlorophenyl)imidazo[1,2-a]pyridin-3-yl)methyl)-4-(methylamino)pyrimidin-2(1H)-one], the activation at 0.1 µM was no less than 50% in experiment [1], -10 to 10% in experiment [3], 10 to 50% in experiment [4] and -10 to 10% in experiment [5]. In addition, the “% Inhibition at 1000 nM for CBZD” value in experiment [2] is given as “++ (percentage of inhibition of central BZD site binding is greater than 80% in the presence of 1000 nM of the compound)”.

On to `Cc1ccc(-c2nc3ccc(C)cn3c2CNc2ncccn2)cc1` [Compound 139, N-((6-methyl-2-p-tolylH-imidazo[1,2-a]pyridin-3-yl)methyl)pyrimidin-2-amine], for which the activation at 0.1 µM was 10 to 50% in experiment [1], -10 to 10% in experiment [3], 10 to 50% in experiment [4] and -10 to 10% in experiment [5]. In addition, the “% Inhibition at 1000 nM for CBZD” value in experiment [2] is “++ (percentage of inhibition of central BZD site binding is greater than 80% in the presence of 1000 nM of the compound)”.

As to `Cc1ccnc(NCc2c(-c3ccccc3)nc3ccc(Cl)cn23)n1` [Compound 158, (6-Chloro-2-phenyl-imidazo[1,2-a]pyridin-3-ylmethyl)-(4-methyl-pyrimidin-2-yl)-amine], the activation at 0.1 µM in experiment [1] is 10 to 50%; in experiment [3], -10 to 10%; in experiment [4], -10 to 10%; in experiment [5], 10 to 50%. The “% Inhibition at 1000 nM for CBZD” value in experiment [2] is listed as “++ (percentage of inhibition of central BZD site binding is greater than 80% in the presence of 1000 nM of the compound)”.

The values are drawn from patent US8497278B2, “Imidazo[1,2-a]pyridine compounds” (priority 2008, dated 2013).
